ChEMBL document CHEMBL1909046, “DrugMatrix in vitro pharmacology data”

Legend:
[1] = target: T1, Alpha-2A adrenergic receptor (Homo sapiens, UniProt P08913); type: cell membranes, Sf9, Membrane; settings: sf9; further: in other assays of this panel Not Active means under 50% inhibition at 10 µM
T1 sequence (P08913 whole entry): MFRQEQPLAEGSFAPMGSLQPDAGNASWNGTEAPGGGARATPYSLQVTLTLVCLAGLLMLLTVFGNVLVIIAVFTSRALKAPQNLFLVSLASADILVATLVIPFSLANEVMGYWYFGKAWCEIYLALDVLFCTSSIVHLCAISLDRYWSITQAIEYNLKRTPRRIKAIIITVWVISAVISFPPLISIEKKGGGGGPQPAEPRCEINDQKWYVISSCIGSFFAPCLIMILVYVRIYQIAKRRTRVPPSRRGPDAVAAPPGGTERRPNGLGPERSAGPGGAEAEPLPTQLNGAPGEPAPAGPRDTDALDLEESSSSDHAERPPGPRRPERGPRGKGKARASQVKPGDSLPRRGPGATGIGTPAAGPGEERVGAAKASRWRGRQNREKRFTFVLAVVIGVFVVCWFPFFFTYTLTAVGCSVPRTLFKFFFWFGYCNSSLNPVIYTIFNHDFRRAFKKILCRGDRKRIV

[2] = target: 5-hydroxytryptamine receptor 6 (Homo sapiens, UniProt P50406); type: cell membranes, HeLa, Membrane; settings: hela; further: in other assays of this panel Not Active means under 50% inhibition at 10 µM
[3] = DRUGMATRIX: Sigma2 radioligand binding (ligand: [3H] Ifenprodil); type: cell membranes, Rattus norvegicus, Wistar, Brain, Membrane; settings: Not Active = under 50% inhibition at 10 µM
Substance-P receptor = Substance-P receptor (Homo sapiens, UniProt P25103); type: cell membranes, CHO, Membrane; settings: cho; further: in other assays of this panel Not Active means under 50% inhibition at 10 µM
Cannabinoid receptor 1 = Cannabinoid receptor 1 (Homo sapiens, UniProt P21554); type: cell membranes, Membrane; settings: chem-1; further: in other assays of this panel Not Active means under 50% inhibition at 10 µM
Carbonic anhydrase 2 = Carbonic anhydrase 2 (Homo sapiens, UniProt P00918); assay: DRUGMATRIX: Carbonic Anhydrase II enzyme inhibition (substrate: 4-Nitrophenyl acetate (4-NPA)); type: tissue-based, Erythrocyte; settings: erythrocyte; Not Active = under 50% inhibition at 10 µM
[4] = target: C-C chemokine receptor type 5 (Homo sapiens, UniProt P51681); type: cell membranes, Membrane; settings: hek293; further: in other assays of this panel Not Active means under 50% inhibition at 10 µM
[5] = target: Sodium-dependent dopamine transporter (Homo sapiens, UniProt Q01959); assay: DRUGMATRIX: Dopamine Transporter radioligand binding (ligand: [125I] RTI-55); type: cell membranes, CHO-K1, Membrane; settings: cho-k1; Not Active = under 50% inhibition at 10 µM
[6] = DRUGMATRIX: GABAA, Chloride Channel, TBOB radioligand binding (ligand: [3H] TBOB); type: cell membranes, Rattus norvegicus, Wistar, Cerebral cortex, Membrane; settings: Not Active = under 50% inhibition at 10 µM
[7] = DRUGMATRIX: Imidazoline I2, Central radioligand binding (ligand: [3H] Idazoxan); type: cell membranes, Rattus norvegicus, Wistar, Cerebral cortex, Membrane; settings: Not Active = under 50% inhibition at 10 µM
Cathepsin G = target: T2, Cathepsin G (Homo sapiens, UniProt P08311); type: tissue-based; settings: neutrophil
T2 sequence (P08311 whole entry): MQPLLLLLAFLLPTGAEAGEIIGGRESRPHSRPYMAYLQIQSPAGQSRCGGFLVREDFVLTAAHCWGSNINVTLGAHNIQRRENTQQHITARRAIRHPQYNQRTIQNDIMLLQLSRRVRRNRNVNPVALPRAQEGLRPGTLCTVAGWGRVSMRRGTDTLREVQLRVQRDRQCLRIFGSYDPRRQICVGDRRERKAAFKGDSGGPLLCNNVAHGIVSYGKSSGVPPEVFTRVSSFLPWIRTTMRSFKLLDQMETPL

[8] = target: Epidermal growth factor receptor (Homo sapiens, UniProt P00533); assay: DRUGMATRIX: Protein Tyrosine Kinase, EGF Receptor enzyme inhibition (substrate: Poly(Glu:Tyr)); type: cell-based, Insect cells; settings: insect cells; Not Active = under 50% inhibition at 10 µM
[9] = DRUGMATRIX: Purinergic P2X radioligand binding (ligand: [3H] alpha, beta-Methylene-ATP); type: cell membranes, Oryctolagus cuniculus, New Zealand albino, Urinary bladder, Membrane; settings: Not Active = under 50% inhibition at 10 µM
Adenosine receptor A1 = target: T3, Adenosine receptor A1 (Homo sapiens, UniProt P30542); type: cell membranes, CHO, Membrane
T3 sequence (P30542 whole entry): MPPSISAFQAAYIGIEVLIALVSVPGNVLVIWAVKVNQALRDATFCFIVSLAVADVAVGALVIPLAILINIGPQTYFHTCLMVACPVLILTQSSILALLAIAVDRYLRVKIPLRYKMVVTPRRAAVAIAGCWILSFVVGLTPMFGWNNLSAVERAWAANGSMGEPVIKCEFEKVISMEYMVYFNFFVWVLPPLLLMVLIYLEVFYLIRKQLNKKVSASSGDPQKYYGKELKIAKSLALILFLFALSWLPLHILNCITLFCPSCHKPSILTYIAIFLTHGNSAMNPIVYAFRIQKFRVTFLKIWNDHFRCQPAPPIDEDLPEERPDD

Glucocorticoid receptor = target: T4, Glucocorticoid receptor (Homo sapiens, UniProt P04150); settings: hela s3; further: in other assays of this panel Not Active means under 50% inhibition at 10 µM
T4 sequence (P04150 whole entry): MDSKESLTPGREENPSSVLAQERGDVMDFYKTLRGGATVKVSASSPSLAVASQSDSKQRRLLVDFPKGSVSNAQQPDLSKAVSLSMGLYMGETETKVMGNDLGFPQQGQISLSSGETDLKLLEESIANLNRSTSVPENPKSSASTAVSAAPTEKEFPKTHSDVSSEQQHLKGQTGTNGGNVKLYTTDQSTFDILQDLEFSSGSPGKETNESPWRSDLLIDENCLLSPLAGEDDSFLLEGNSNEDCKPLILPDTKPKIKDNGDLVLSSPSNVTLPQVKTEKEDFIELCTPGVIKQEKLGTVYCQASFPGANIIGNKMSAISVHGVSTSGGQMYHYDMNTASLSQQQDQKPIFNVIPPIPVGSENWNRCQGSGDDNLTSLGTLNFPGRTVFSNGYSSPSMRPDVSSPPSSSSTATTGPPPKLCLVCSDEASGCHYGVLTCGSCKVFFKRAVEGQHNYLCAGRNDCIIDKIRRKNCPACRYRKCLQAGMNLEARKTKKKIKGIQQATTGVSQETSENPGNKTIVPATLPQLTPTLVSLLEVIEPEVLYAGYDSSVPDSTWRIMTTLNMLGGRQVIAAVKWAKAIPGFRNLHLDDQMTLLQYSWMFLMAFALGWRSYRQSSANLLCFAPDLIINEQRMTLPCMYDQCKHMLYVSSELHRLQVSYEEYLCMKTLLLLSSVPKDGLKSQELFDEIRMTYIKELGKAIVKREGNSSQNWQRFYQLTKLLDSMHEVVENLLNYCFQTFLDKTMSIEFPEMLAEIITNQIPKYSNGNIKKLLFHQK

Chain of Epidermal growth factor receptor (P00533 whole entry): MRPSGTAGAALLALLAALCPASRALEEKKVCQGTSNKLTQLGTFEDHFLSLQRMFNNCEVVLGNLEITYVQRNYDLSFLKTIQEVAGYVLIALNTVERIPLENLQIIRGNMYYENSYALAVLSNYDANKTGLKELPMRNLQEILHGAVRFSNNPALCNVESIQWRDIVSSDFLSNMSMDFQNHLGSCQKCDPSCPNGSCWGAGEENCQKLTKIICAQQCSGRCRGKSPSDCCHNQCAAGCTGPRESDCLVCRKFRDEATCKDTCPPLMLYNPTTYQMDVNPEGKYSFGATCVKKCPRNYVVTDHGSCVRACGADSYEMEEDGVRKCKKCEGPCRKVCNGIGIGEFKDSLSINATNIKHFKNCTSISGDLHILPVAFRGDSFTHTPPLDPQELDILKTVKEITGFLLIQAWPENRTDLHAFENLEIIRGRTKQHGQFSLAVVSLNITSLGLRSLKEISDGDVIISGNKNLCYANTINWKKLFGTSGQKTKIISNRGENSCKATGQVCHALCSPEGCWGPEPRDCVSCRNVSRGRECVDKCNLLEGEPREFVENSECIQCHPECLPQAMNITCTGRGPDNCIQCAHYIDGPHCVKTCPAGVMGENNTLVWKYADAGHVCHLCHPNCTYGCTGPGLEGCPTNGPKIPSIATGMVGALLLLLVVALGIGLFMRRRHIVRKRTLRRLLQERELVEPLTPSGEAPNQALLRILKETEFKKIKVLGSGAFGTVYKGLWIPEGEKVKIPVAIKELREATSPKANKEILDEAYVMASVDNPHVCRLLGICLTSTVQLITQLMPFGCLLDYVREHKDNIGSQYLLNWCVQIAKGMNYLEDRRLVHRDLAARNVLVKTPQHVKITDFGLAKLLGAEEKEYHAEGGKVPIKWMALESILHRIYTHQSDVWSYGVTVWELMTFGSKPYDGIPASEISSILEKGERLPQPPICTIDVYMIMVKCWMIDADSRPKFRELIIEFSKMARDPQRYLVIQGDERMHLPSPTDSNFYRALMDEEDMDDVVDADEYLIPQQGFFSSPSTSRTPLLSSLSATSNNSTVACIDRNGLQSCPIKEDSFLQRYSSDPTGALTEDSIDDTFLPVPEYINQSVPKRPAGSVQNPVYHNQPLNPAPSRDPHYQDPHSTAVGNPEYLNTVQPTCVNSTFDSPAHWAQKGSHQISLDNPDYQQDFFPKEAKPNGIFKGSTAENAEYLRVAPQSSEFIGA
Chain of 5-hydroxytryptamine receptor 6 (P50406 whole entry): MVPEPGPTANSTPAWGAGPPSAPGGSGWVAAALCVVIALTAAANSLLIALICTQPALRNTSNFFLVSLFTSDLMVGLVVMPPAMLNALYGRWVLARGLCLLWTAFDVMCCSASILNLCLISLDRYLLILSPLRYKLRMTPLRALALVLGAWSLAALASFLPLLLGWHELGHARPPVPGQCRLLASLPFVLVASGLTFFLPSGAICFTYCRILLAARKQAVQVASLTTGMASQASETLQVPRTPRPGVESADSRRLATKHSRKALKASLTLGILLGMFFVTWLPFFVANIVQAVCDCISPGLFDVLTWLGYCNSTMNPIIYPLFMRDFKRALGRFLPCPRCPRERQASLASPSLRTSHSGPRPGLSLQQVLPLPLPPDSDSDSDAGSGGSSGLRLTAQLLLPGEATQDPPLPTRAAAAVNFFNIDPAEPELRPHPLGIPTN
Chain of C-C chemokine receptor type 5 (P51681 whole entry): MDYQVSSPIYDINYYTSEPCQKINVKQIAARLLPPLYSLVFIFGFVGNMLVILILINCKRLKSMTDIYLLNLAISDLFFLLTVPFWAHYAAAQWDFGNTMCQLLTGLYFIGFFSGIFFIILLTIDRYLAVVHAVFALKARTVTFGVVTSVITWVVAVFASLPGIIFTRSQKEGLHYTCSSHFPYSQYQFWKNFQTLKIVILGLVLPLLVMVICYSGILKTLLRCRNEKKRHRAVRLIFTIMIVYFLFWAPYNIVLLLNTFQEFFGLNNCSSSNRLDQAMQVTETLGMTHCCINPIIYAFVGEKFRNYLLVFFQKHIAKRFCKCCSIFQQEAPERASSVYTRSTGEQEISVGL
Chain of Sodium-dependent dopamine transporter (Q01959 whole entry): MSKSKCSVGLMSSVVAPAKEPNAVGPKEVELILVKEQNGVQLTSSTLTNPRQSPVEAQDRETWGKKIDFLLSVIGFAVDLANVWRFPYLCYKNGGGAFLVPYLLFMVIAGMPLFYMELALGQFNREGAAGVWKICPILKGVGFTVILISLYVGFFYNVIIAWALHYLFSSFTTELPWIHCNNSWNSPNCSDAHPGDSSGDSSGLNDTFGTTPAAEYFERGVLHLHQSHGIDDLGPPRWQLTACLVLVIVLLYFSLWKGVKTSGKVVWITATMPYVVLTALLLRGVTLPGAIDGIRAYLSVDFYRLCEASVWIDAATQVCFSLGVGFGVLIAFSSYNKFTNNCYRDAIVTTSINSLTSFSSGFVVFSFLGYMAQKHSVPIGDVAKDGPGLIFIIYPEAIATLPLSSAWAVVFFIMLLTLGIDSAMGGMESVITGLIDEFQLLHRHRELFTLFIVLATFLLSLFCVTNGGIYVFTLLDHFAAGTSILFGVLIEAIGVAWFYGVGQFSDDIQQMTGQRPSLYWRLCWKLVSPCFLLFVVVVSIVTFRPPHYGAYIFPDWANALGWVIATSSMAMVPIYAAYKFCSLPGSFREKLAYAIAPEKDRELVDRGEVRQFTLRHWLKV
Chain of Substance-P receptor (P25103 whole entry): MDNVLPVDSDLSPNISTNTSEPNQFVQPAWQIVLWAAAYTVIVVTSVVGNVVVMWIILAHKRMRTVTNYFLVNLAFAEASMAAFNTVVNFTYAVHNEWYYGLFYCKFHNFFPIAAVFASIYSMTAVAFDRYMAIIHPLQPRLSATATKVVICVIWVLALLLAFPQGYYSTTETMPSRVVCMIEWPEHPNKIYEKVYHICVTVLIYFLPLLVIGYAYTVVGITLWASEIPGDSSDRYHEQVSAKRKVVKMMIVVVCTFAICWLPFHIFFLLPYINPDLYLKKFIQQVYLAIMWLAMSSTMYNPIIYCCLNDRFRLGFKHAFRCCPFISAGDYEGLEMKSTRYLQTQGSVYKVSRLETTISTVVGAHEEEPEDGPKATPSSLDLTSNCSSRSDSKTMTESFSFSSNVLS
Chain of Cannabinoid receptor 1 (P21554 whole entry): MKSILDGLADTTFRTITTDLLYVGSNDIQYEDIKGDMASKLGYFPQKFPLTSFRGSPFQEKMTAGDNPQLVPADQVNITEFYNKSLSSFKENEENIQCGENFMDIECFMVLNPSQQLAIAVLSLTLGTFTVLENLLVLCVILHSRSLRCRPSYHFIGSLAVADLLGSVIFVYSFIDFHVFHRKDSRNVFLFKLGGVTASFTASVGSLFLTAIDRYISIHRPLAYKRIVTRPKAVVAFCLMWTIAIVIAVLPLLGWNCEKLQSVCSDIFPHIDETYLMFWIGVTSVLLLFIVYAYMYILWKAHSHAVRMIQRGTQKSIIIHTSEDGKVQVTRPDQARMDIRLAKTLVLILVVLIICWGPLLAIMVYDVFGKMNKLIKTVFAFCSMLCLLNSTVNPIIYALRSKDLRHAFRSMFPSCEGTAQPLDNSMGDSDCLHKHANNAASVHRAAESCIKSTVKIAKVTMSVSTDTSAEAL

Row | SMILES | IC50 [1] | IC50 [2] | IC50 [3] | Ki [3] | IC50 (Substance-P receptor) | IC50 (Cannabinoid receptor 1) | IC50 (Carbonic anhydrase 2) | IC50 [4] | IC50 [5] | IC50 [6] | Ki [6] | IC50 [7] | Ki [7] | IC50 (Cathepsin G) | IC50 [8] | IC50 [9] | Ki [9] | IC50 (Adenosine receptor A1; cho) | IC50 (Glucocorticoid receptor) | also measured
1 | C=C1C(=O)O[C@@H]2C3O[C@]3(C)CC/C=C(\C)CC[C@@H]12 (stereo partly drawn) | Not Active | Not Active | Not Active | Not Active | Not Active | Not Active | Not Active | Not Active | Not Active | Not Active | Not Active | Not Active | Not Active | Not Active | Not Active | Not Active | Not Active | Not Active | Not Active | 
2 | COc1ccc2c(c1)c(CC(=O)OCC(=O)O)c(C)n2C(=O)c1ccc(Cl)cc1 [ACEMETACIN] | Not Active | Not Active | Not Active | Not Active | Not Active | Not Active | Not Active | Not Active | Not Active | Not Active | Not Active | Not Active | Not Active | Not Active | Not Active | Not Active | Not Active | Not Active | Not Active | 
3 | CCCSc1ccc2nc(NC(=O)OC)[nH]c2c1 [ALBENDAZOLE] | Not Active | Not Active | Not Active | Not Active | Not Active | Not Active | Not Active | Not Active | Not Active | Not Active | Not Active | Not Active | Not Active | Not Active | Not Active | Not Active | Not Active | Not Active | Not Active | 
4 | O=c1cc(-c2ccccc2)oc2c1ccc1ccccc12 [ALPHA-NAPHTHOFLAVONE] | Not Active | Not Active | Not Active | Not Active | Not Active | Not Active | Not Active | Not Active | Not Active | Not Active | Not Active | Not Active | Not Active | Not Active | Not Active | Not Active | Not Active |  | Not Active | IC50 (Adenosine receptor A1; read-out: IC50): 1130 nM; Ki (Adenosine receptor A1; read-out: Ki): 661 nM
5 | NCC[C@H](O)C(=O)N[C@@H]1C[C@H](N)[C@@H](O[C@H]2O[C@H](CN)[C@@H](O)[C@H](O)[C@H]2O)[C@H](O)[C@H]1O[C@H]1O[C@H](CO)[C@@H](O)[C@H](N)[C@H]1O [AMIKACIN] | Not Active | Not Active | Not Active | Not Active | Not Active | Not Active | Not Active | Not Active | Not Active | Not Active | Not Active | Not Active | Not Active | Not Active | Not Active | Not Active | Not Active | Not Active | Not Active | 
6 | CCOC(=O)OC(C)OC1=C(C(=O)Nc2ccccn2)N(C)S(=O)(=O)c2ccccc21 (stereo not drawn) [AMPIROXICAM] | Not Active | Not Active | Not Active | Not Active | Not Active | Not Active | Not Active | Not Active | Not Active | Not Active | Not Active | Not Active | Not Active | Not Active | Not Active | Not Active | Not Active | Not Active | Not Active | 
7 | N#C[C@H](O[C@@H]1O[C@H](CO[C@@H]2O[C@H](CO)[C@@H](O)[C@H](O)[C@H]2O)[C@@H](O)[C@H](O)[C@H]1O)c1ccccc1 [AMYGDALIN] | Not Active | Not Active | Not Active | Not Active | Not Active | Not Active | Not Active | Not Active | Not Active | Not Active | Not Active | Not Active | Not Active | Not Active | Not Active | Not Active | Not Active | Not Active | Not Active | 
8 | C=C1[C@@H]2CCC3[C@@](CC[C@@H]4[C@H](C(=O)O)C[C@@H](O[C@@H]5O[C@H](CO)[C@@H](OS(=O)(=O)[O-])[C@H](OS(=O)(=O)[O-])[C@H]5OC(=O)CC(C)C)C[C@@]34C)(C2)[C@@H]1O.[K+].[K+] (stereo partly drawn) [ATRACTYLOSIDE] | Not Active | Not Active | Not Active | Not Active | Not Active | Not Active | Not Active | Not Active | Not Active | Not Active | Not Active | Not Active | Not Active | Not Active | Not Active | Not Active | Not Active | Not Active | Not Active | 
